We go through nine compounds from PubChem BioAssay AID328 (DTP/NCI, 2004).

Values joined by “and” are separate entries in the source; they are usually repeats but may differ in a detail not shown here. Equal values may be shown once. Inconclusive results and toxic doses are left out.

For the test, the system named is BDF1 mice, P388 leukemia ip, median survival T/C. Nature of the test: NCI In Vivo Anticancer Drug Screen. Data for tumor model P388 Leukemia (intraperitoneal) in B6D2F1 (BDF1) mice. The conditions noted are these: endpoint: median survival time, higher = longer survival. The method, boiled down:
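Steps: implant the tumour, treat one group with compound and another with vehicle, record survival, then divide treated by control.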

The mark [1] stands for this setting: dose: 0.18 mg/kg/injection, schedule: Q01DX009 (ip), vehicle: saline.
The mark [2] stands for this setting: dose: 0.37 mg/kg/injection, schedule: Q01DX009 (ip), vehicle: saline.

In the case of `C=CC=O`, the T/C was 100 % of control (dose: 0.45 mg/kg/injection, schedule: Q01DX009 (ip), vehicle: saline); 109 % of control (dose: 0.45 mg/kg/injection, schedule: Q04DX003 (ip), vehicle: saline); 108 % of control (dose: 0.9 mg/kg/injection, schedule: Q01DX009 (ip), vehicle: saline); 100 % of control (dose: 0.9 mg/kg/injection, schedule: Q04DX003 (ip), vehicle: saline); 112 % of control (dose: 1.8 mg/kg/injection, schedule: Q01DX009 (ip), vehicle: saline); 109 % of control (dose: 1.8 mg/kg/injection, schedule: Q04DX003 (ip), vehicle: saline). Also, the T/C (dose: 6.25 mg/kg/injection, schedule: Q01DX009 (ip), vehicle: saline) is 109 % of control; the T/C (dose: 6.25 mg/kg/injection, schedule: Q04DX003 (ip), vehicle: saline) was 104 % of control; the T/C (dose: 12.5 mg/kg/injection, schedule: Q04DX003 (ip), vehicle: saline) was 100 % of control.

For the compound `CCN(C(=O)C(F)(F)F)C(C)(C)C(SSSC(c1ccc(Cl)cc1)C(C)(C)N(CC)C(=O)C(F)(F)F)c1ccc(Cl)cc1` (stereo not drawn), the T/C was 115 % of control (dose: 22.0 mg/kg/injection, schedule: Q01DX009 (ip), vehicle: Klucel (hydroxypropylcellulose) (HPC)); 115 % of control (dose: 33.0 mg/kg/injection, schedule: Q01DX009 (ip), vehicle: Klucel (hydroxypropylcellulose) (HPC)); 120 % of control (dose: 50.0 mg/kg/injection, schedule: Q01DX009 (ip), vehicle: Klucel (hydroxypropylcellulose) (HPC)); 120 % of control (dose: 75.0 mg/kg/injection, schedule: Q01DX009 (ip), vehicle: Klucel (hydroxypropylcellulose) (HPC)); 100 % of control (dose: 100.0 mg/kg/injection, schedule: Q01DX009 (ip), vehicle: Klucel (hydroxypropylcellulose) (HPC)); 112 % of control (dose: 100.0 mg/kg/injection, schedule: Q04DX003 (ip), vehicle: Klucel (hydroxypropylcellulose) (HPC)). In addition, the T/C (dose: 200.0 mg/kg/injection, schedule: Q04DX003 (ip), vehicle: Klucel (hydroxypropylcellulose) (HPC)) is 116 % of control.

Take `IC12CC3CC(CC(C3)C1)C2`: the T/C is 90 % of control (dose: 100.0 mg/kg/injection, schedule: Q04DX003 (ip), vehicle: saline with Tween-80); 90 % of control (dose: 200.0 mg/kg/injection, schedule: Q04DX003 (ip), vehicle: saline with Tween-80); 86 % of control (dose: 400.0 mg/kg/injection, schedule: Q04DX003 (ip), vehicle: saline with Tween-80).

In the case of `COc1cc2c(c(OC)c1OC)-c1ccc(OC)c(=O)cc1[C@@H](NC(=O)CF)CC2`, the T/C runs as follows: (dose: 0.09 mg/kg/injection, schedule: Q01DX009 (ip), vehicle: saline with Tween-80) 187 % of control; (dose: 0.09 mg/kg/injection, schedule: Q01DX009 (ip), vehicle: saline) 188 % of control; (dose: 0.18 mg/kg/injection, schedule: Q01DX009 (ip), vehicle: saline with Tween-80) 232 % of control; under setting [1], 257 % of control; under setting [2], 103 % of control; (dose: 46.2 micrograms/kg/injection, schedule: Q01DX009 (ip), vehicle: saline with Tween-80) 158 % of control. Besides, the T/C runs as follows: (dose: 185.0 micrograms/kg/injection, schedule: Q01DX009 (ip), vehicle: saline with Tween-80) 89 % of control; (dose: 370.0 micrograms/kg/injection, schedule: Q01DX009 (ip), vehicle: saline with Tween-80) 247 % of control.

With `N#Cc1c(F)c(F)c(C#N)c(F)c1F`, the T/C runs as follows: (dose: 1.25 mg/kg/injection, schedule: Q01DX009 (ip), vehicle: Klucel (hydroxypropylcellulose) (HPC)) 100 % of control; (dose: 2.5 mg/kg/injection, schedule: Q01DX009 (ip), vehicle: Klucel (hydroxypropylcellulose) (HPC)) 104 % of control; (dose: 5.0 mg/kg/injection, schedule: Q01DX009 (ip), vehicle: Klucel (hydroxypropylcellulose) (HPC)) 108 % of control; (dose: 10.0 mg/kg/injection, schedule: Q01DX009 (ip), vehicle: Klucel (hydroxypropylcellulose) (HPC)) 104 % of control.

For the compound `O=C1NC(Cc2ccccc2)C(=O)NC1Cc1ccccc1` (stereo not drawn), the T/C reads like this: (dose: 6.25 mg/kg/injection, schedule: Q01DX009 (ip), vehicle: saline with Tween-80) 106 % of control; (dose: 12.5 mg/kg/injection, schedule: Q01DX009 (ip), vehicle: saline with Tween-80) 101 % of control; (dose: 25.0 mg/kg/injection, schedule: Q01DX009 (ip), vehicle: saline with Tween-80) 108 % of control.

Regarding `CN=Cc1ccc([N+](=O)[O-])cc1`, the T/C was 113 % of control (dose: 100.0 mg/kg/injection, schedule: Q01DX001 (ip), vehicle: Klucel (hydroxypropylcellulose) (HPC)) and 104 % of control (dose: 200.0 mg/kg/injection, schedule: Q01DX001 (ip), vehicle: Klucel (hydroxypropylcellulose) (HPC)).

Take `CSc1c(C)[nH]c2c(C)cccc12`: the T/C is, setting by setting: (dose: 50.0 mg/kg/injection, schedule: Q04DX002 (ip), vehicle: saline with Tween-80) 100 % of control; (dose: 100.0 mg/kg/injection, schedule: Q04DX002 (ip), vehicle: saline with Tween-80) 100 % of control; (dose: 200.0 mg/kg/injection, schedule: Q04DX002 (ip), vehicle: saline with Tween-80) 105 % of control.

`COC1OC(C)C(O)C(O)[CH]1[Hg][O]C(C)=O` (stereo not drawn): the T/C under setting [1] is 111 % of control; the T/C under setting [2] is 105 % of control; the T/C (dose: 0.75 mg/kg/injection, schedule: Q01DX009 (ip), vehicle: saline) was 94 % of control and 105 % of control; the T/C (dose: 1.5 mg/kg/injection, schedule: Q01DX009 (ip), vehicle: saline) was 86 % of control and 111 % of control.
